Counter-ions that a name gives are not always drawn.
Tests used:
[1] = In vitro dissociation in blood plasma of rabbit; format: in vitro ADME, New Zealand white rabbits; conditions: fresh New Zealand white rabbit plasma, 37° C.
Method: The obtained water soluble taxane derivatives of the following formulae were formulated as 0.2 mg/ml aqueous solutions. […]

[2] = In vitro dissociation in blood plasma of rat; format: in vitro ADME, SD rats; conditions: fresh SD rat plasma, 37° C.; for Sampling time/Dissociation percent (%) 2 min: 2 min incubation; for Sampling time/Dissociation percent (%) 5 min: 5 min incubation; for Sampling time/Dissociation percent (%) 10 min: 10 min incubation
Method: The obtained water soluble taxane derivatives of the following formulae were formulated as 0.2 mg/ml aqueous solutions. […] After 2 min, 5 min and 10 min of incubation, 0.2 ml of solutions were respectively taken from each of the samples, and added to acetonitrile (0.4 ml) cooled to −20° C. for precipitation of protein.

| Compound | Sampling time/Dissociation percent (%) 2 min [1] | Sampling time/Dissociation percent (%) 5 min [1] | Sampling time/Dissociation percent (%) 10 min [1] | Sampling time/Dissociation percent (%) 2 min [2] | Sampling time/Dissociation percent (%) 5 min [2] | Sampling time/Dissociation percent (%) 10 min [2] |
| --- | --- | --- | --- | --- | --- | --- |
| COC1C(=O)C2(C)C(OC)CC3OCC3(OC(C)=O)C2C(OC(=O)c2ccccc2)C2(O)CC(OC(=O)C(OC(=O)C(F)CCN(C)C)C(NC(=O)OC(C)(C)C)c3ccccc3)C(C)=C1C2(C)C.Cl [Compound 09, 2′-O-[4-N,N-dimethylamino-2(R,S)-fluorobutyryl]cabazitaxel hydrochloride] | 83.2% | 97.1% | 100% | 47.8% | 89.1% | 100% |
| CCN(CC)CC[C@](C)(C(=O)O[C@@H](C(=O)O[C@H]1C[C@@]2(O)[C@@H](OC(=O)c3ccccc3)[C@@H]3[C@]4(OC(C)=O)CO[C@@H]4C[C@H](OC)[C@@]3(C)C(=O)[C@H](OC)C(=C1C)C2(C)C)[C@@H](NC(=O)OC(C)(C)C)c1ccccc1)C(F)(F)F.CS(=O)(=O)O [Compound 11, 2′-O-[4-N,N-diethylamino-2-methyl-2(R)-2-trifluoromethylbutyryl]cabazitaxel methanesulfonate] | 56.2% | 80.5% | 92.1% | 52.3% | 89.6% | 97.2% |
| CO[C@H]1C(=O)[C@]2(C)[C@@H](OC)C[C@H]3OC[C@@]3(OC(C)=O)[C@H]2[C@H](OC(=O)c2ccccc2)[C@]2(O)C[C@H](OC(=O)[C@H](OC(=O)[C@H](F)CCN(C)C)[C@@H](NC(=O)OC(C)(C)C)c3ccccc3)C(C)=C1C2(C)C [Compound 07, 2′-O-[4-N,N-dimethylamino-2(R)-fluorobutyryl]cabazitaxel hydrochloride] | 79.2% | 95.5% | 100% | 49.5% | 89.6% | 100% |
| CO[C@H]1C(=O)[C@]2(C)[C@@H](OC)C[C@H]3OC[C@@]3(OC(C)=O)[C@H]2[C@H](OC(=O)c2ccccc2)[C@]2(O)C[C@H](OC(=O)[C@H](OC(=O)[C@@H](F)CCN(C)C)[C@@H](NC(=O)OC(C)(C)C)c3ccccc3)C(C)=C1C2(C)C.Cl [Compound 08, 2′-O-[4-N,N-dimethylamino-2(S)-fluorobutyryl]cabazitaxel hydrochloride] | 89.9% | 93.2% | 100% | 47.6% | 87.6% | 100% |
| CCCCC(CC(F)(C(=O)OC(C(=O)OC1CC2(O)C(OC(=O)c3ccccc3)C3C4(OC(C)=O)COC4CC(O)C3(C)C(=O)C(OC(C)=O)C(=C1C)C2(C)C)C(NC(=O)c1ccccc1)c1ccccc1)C(F)(F)F)N(C)C1CCCC1.Cl (mixture of isomers) [Compound C15, 2′-O-[4-N-methyl-N-cyclopentylamino-2-trifluoromethyl-2-fluorooctanoyl]paclitaxel hydrochloride] | – | – | – | 34.2% | 45.3% | 58.2% |
| CCCC(CC(F)(F)C(=O)O[C@@H](C(=O)O[C@H]1C[C@@]2(O)[C@@H](OC(=O)c3ccccc3)[C@@H]3[C@]4(OC(C)=O)CO[C@@H]4C[C@H](O)[C@@]3(C)C(=O)[C@H](O)C(=C1C)C2(C)C)[C@@H](NC(=O)OC(C)(C)C)c1ccccc1)N1CC1.Cl (stereo partly drawn) [Compound C14, 2′-O-[4-(aziridin-1-yl)amino-2,2-difluoroheptanoyl]docetaxel hydrochloride] | – | – | – | 41.9% | 54.4% | 71.3% |
| 2′-O-[4-(aziridin-1-yl)amino-2,2-difluoroheptanoyl]docetaxel methanesulfonate [Compound 14] | – | – | – | 42.1% | 55.7% | 72.5% |

Source: patent US9650390B2, “Water-soluble taxane derivatives and uses thereof” (priority 2014, dated 2017)
